Laboratory results as given in publication PMC9861162 (Pharmaceuticals, 2022).
Values joined by “and” are separate entries in the source; they are usually repeats but may differ in a detail not shown here. Equal values may be shown once. Read-outs that look alike come from different tables or passages of the source.

Columns and labels:
[1] = dogs, observed, ref Palo et al. [7], cited from earlier work
CYP2C19 = CYP2C19 (Homo sapiens, UniProt P33261); details: microsomes
Procedure: (§1) The incubation conditions employed for each CYP450 isoform were performed, as previously described.
(§2) Buffer solution (0.1 mol/L aqueous phosphate buffer, pH 7.4, 69 µL), NADPH-regenerating solutions (10 µL solution A: 26 mmol/L NADP+, 66 mmol/L glucose-6-phosphate, and 66 mmol/L MgCl2; 2 µL solution B: 40 U/mL glucose-6-phosphate dehydrogenase in 5 mmol/L sodium citrate), and deionized water (69 µL) were added, in a total volume of 150 μL. The tubes were vortex-mixed and preincubated with continuous gentle shaking for 5 min at 37 °C in a shaking water bath. Reactions were initiated by the addition of 50 µL of HLM solution in the tubes which were gently mixed by hand and incubated with continuous gentle shaking at 37 °C. Aliquots of 200 µL ice-cold solvent (Table 1) containing IS (1 µg/mL) were added. […] The supernatants were transferred to glass autosampler vials and submitted to LC-MS/MS analysis (5 µL injection volume) to monitor the substrate metabolite formation.

CYP1A2 [2] = molecular target: T1, CYP1A2 (Homo sapiens, UniProt P05177); details: microsomes
T1 sequence (P05177 1-516): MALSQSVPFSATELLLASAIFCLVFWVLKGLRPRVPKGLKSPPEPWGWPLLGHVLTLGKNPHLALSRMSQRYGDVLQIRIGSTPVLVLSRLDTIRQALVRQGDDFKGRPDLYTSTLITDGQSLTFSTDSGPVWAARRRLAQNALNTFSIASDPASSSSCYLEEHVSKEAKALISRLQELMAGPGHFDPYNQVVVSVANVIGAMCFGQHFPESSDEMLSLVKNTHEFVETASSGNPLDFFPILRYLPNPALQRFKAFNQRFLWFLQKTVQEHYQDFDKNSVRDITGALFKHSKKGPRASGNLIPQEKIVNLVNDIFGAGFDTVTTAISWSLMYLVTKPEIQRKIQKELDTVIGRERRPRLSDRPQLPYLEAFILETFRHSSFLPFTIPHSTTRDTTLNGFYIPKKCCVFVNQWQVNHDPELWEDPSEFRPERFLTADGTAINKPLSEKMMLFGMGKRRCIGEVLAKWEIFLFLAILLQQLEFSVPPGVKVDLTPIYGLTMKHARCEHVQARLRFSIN
Procedure: as §1, §2

CYP2D6 [3] = molecular target: T2, CYP2D6 (Homo sapiens, UniProt P10635); details: microsomes
T2 sequence (P10635 whole entry): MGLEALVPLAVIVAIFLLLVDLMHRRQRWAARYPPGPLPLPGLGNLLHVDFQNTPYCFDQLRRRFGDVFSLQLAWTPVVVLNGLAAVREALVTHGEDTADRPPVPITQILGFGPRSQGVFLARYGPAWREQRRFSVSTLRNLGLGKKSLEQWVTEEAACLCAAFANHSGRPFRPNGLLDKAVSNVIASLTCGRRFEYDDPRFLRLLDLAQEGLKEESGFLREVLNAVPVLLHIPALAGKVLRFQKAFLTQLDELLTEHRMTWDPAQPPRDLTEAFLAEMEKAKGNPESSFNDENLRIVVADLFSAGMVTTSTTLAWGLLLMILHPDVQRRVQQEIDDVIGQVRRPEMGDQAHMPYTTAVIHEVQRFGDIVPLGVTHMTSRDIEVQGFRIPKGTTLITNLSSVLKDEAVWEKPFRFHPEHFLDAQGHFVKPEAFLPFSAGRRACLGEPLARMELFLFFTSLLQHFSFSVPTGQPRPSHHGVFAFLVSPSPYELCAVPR
Procedure: as §1, §2

CYP2C8 [4] = molecular target: T3, CYP2C8 (Homo sapiens, UniProt P10632); details: microsomes
T3 sequence (P10632 1-490): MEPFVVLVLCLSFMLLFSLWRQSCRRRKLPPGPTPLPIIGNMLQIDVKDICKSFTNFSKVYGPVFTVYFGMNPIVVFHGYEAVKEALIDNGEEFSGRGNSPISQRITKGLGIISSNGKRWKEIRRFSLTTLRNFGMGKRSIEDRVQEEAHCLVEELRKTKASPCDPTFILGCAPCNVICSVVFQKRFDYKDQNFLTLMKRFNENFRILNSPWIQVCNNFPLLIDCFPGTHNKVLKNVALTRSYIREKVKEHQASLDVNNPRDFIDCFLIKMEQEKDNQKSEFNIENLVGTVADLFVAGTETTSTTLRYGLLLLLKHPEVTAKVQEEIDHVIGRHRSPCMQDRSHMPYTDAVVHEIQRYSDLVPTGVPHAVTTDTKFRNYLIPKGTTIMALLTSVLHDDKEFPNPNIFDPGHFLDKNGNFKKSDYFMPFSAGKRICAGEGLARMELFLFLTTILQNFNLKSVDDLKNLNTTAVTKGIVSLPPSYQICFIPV
Procedure: as §1, §2

CYP2C9 [5] = molecular target: T4, CYP2C9 (Homo sapiens, UniProt P11712); details: microsomes
T4 sequence (P11712 whole entry): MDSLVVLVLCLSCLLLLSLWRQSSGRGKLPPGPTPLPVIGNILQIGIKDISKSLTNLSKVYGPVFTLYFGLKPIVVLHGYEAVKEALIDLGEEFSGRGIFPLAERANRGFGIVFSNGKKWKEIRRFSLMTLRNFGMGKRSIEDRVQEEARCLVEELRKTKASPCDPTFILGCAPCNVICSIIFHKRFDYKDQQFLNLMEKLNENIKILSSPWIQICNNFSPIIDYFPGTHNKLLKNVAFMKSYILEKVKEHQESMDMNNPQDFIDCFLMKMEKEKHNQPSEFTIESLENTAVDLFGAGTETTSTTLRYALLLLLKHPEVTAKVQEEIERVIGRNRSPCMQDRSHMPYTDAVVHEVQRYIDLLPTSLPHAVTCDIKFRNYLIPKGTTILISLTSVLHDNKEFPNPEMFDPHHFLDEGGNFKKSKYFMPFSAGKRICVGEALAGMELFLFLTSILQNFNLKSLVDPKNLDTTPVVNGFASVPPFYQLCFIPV
Procedure: as §1, §2

[6] = set-up: method as in Antunes et al. [14]; details: ref Antunes et al. [14], cited from earlier work
CYP1A2 [7] = molecular target: T1, CYP1A2; assay: clinical DDI prediction, static (IVIVE) and dynamic (PBPK) models, CYP1A2
From the text: (§3) The Ki input values were estimated from the ratio IC50/2. Since the IC50 experiments were designed considering the substrate concentration equal to Km, the simplification of Ki as IC50/2 was considered for a competitive inhibition reaction.
(§4) The following Equation (4) was considered for the potential DDI evaluation:(4) AUCR=AUCwith inhibitor/AUCwithout inhibitor where AUCR is the area under the curve ratio, AUCwith inhibitor is AUC in the presence of the inhibitor, and AUCwithout inhibitor is AUC in the absence of the inhibitor.

[8] = set-up: method as in Antunes et al. [14]; details: dog plasma; ref Antunes et al. [14]; cited from earlier work
tinea cruris = details: topical treatment of tinea cruris; ref [4]; cited from earlier work
CYP3A4/5 = assay: in vitro CYP450 metabolism inhibition assay in human liver microsomes, CYP3A (midazolam or nifedipine)
Procedure: as §1, §2

[9] = test system: several pathogenic fungi, such as Tricophyton verrucosum, Tricophyton rubrum, Trycophyton mantagrophutes, Microsporum gypseum, Microsporum canis, and …; details: ref [1]-[7]; cited from earlier work
CYP2D6 [10] = molecular target: T2, CYP2D6
From the text: as §3, §4

CYP2C8 [11] = molecular target: T3, CYP2C8
From the text: as §3, §4

CYP2C9 [12] = molecular target: T4, CYP2C9
From the text: as §3, §4

Chain of CYP2C19 (P33261 whole entry, canonical isoform): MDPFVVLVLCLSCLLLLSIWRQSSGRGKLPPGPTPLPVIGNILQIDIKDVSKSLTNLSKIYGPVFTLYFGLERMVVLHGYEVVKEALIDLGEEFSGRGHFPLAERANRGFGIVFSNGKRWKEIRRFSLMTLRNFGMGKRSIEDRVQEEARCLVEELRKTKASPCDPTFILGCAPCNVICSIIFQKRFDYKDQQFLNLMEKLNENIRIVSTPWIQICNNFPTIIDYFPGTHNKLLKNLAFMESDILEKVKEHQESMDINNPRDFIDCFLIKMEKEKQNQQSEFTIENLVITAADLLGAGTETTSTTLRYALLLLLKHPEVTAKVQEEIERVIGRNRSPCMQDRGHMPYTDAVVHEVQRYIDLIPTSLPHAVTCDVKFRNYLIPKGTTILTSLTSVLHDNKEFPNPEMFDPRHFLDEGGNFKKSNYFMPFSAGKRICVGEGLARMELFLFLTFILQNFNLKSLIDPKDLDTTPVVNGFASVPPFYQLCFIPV

For FC(F)(F)c1ccc(COC(Cn2ccnc2)c2ccc(Cl)cc2Cl)cc1 (centres unmarked) [dapaconazole, Dapaconazole], the AUC0-t ([1]; intravenous 1 mg/kg) is listed as 255.0 ng·h/mL, the CL ([1]; intravenous 1 mg/kg) is listed as 700.0 mL/min and the Cmax ([1]; intravenous 1 mg/kg) is listed as 373.2 ng/mL. The “t1/2 Terminal” value ([1]; intravenous 1 mg/kg) was 2.1 h, the AUC0-t ([1]; intravenous 2 mg/kg) was 779.9 ng·h/mL and the CL ([1]; intravenous 2 mg/kg) was 591.7 mL/min. The Cmax ([1]; intravenous 2 mg/kg) was 1444.7 ng/mL, the “t1/2 Terminal” value ([1]; intravenous 2 mg/kg) was 2.5 h and the AUC0-t ([1]; intravenous 20 mg/kg) was 4780.1 ng·h/mL. For the same compound, the CL ([1]; intravenous 20 mg/kg) was 700.0 mL/min, the Cmax ([1]; intravenous 20 mg/kg) was 4708.3 ng/mL and the “t1/2 Terminal” value ([1]; intravenous 20 mg/kg) was 2.3 h. The Ki (CYP2C19) was 30 nM, the IC50 (CYP1A2 [2]) was 3680 nM and the Ki (CYP1A2 [2]) was 1840 nM. For the same compound, the Ki (CYP2D6 [3]) was 430 nM, the “in vitro reversible inhibition class from IC50” value (CYP2C8 [4]) was “slightly inhibits” and the Ki (CYP2C9 [5]) was 110 nM. The “fu,inc” value ([6]; dog liver microsome incubation) was 0.97, the CL int. mic. ([6]; dog liver microsomes) was 257.97 µL/min/mg and 258 µL/min/mg and the “DDI potential from Ki and R1 values” (CYP1A2 [7]; CYP1A2) was “moderate potential”. For the same compound, the R1 (CYP1A2 [7]; reversible inhibition, R1=1+(Imax,u/Ki,u), substrate phenacetin) was 1.20, the Unbound fraction [8] was 0.037 and the “efficacy compared with miconazole” value (tinea cruris) was “noninferior efficacy”. The IC50 (CYP3A4/5; HLM, 3A4, range over midazolam and nifedipine substrates) was 8 to 30 nM, the IC50 (CYP3A4/5; HLM, midazolam as substrate, figure in parentheses not defined) was 7.69 nM and the Ki (CYP3A4/5; Ki = IC50/2, substrate midazolam) was 4 nM. For the same compound, the IC50 (CYP3A4/5; microsomes) was 30.3 nM, the antifungal activity [9] was “antifungal activity” and the “DDI potential from Ki and R1 values” (CYP2D6 [10]) was “high potential”. The R1 (CYP2D6 [10]) was 1.86, the “DDI potential from Ki and R1 values” (CYP2C8 [11]) was “low potential” and the R1 (CYP2C8 [11]) was 1.01. For the same compound, the “DDI potential from Ki and R1 values” (CYP2C9 [12]) was “high potential” and the R1 (CYP2C9 [12]) was 4.43.
